The values below come from patent publication US20260068882A1, “ARTHROPOD CONTROLLING COMPOSITION” (Firmenich SA, priority 2019, published 2026).

Molecules are shown by their SMILES. Like-named read-outs stand apart in the source and are kept apart here.

Assay [1] relates to Aedes aegypti. The experiment in a line: In vitro Warm Body assay, mosquitoes landing on treated warm body. The following applies: for pest or weed control at 0.04 %: Aedes aegypti, read-out: decrease of landings; for % of mosquitoes' repellency: normalised to landing with 100% ethanol. Format: in vivo. An outline of the steps:
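Adapted Warm Body assay with host-seeking, non-blood-fed, sugar-fed A. aegypti Rockefeller females aged 5–10 days (10–12 days in one set); cages held 30 (or 25) females at 150 lux. Landings were counted automatically. Doses in ethanol were 0.0016%, 0.04% and 1% in triplicate, or a single replicate across 0.0016–1%.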

The subject of assay [2] is Ixodes ricinus. The experiment in a line: In vitro Warm Plate Assay for ticks. It counts as in vivo. The following applies: for concentration at which the level of 85% of ticks affected is reached: Tables 10 and 12. An outline of the steps:
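Repellency against last-stage Ixodes ricinus nymphs in an in vitro warm plate assay, compounds diluted in ethanol at 0.4 and 10 mg/mL, 0.0016% to 1%, or 20% (w/w). Ticks walking down or falling from the treated plate scored as affected, walking up as unaffected; groups of 12 ticks, n=2-5.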

Setting [3] is: Ixodes ricinus, 0.0016% (Table 11), read-out: percentage of ticks affected on the Warm Plate.
[4] abbreviates: Ixodes ricinus, 0.04% (Table 11), read-out: percentage of ticks affected on the Warm Plate.
The mark [5] stands for this setting: Ixodes ricinus, 1% (Table 11), read-out: percentage of ticks affected on the Warm Plate.
The mark [6] stands for this setting: Ixodes ricinus, 0.04% (Table 10), read-out: percentage of ticks affected on the Warm Plate.
The mark [7] stands for this setting: Ixodes ricinus, 0.2% (Table 10), read-out: percentage of ticks affected on the Warm Plate.
[8] abbreviates: Ixodes ricinus, 1% (Table 10), read-out: percentage of ticks affected on the Warm Plate.

As for `Cc1ccc2c(c1)CC(C)(C(C)O)C2` (stereo not drawn) [1-(2,5-dimethyl-2-indanyl)-1-ethanol], the pest or weed control at 0.04 % in assay [1] was roughly 70%; in assay [2] (setting [4]) it was 0%. The pest or weed control at 0.0016 % in assay [2] (setting [3]) came to 15%. Moreover, the pest or weed control at 1 % in assay [2] (setting [5]) is 100%.
`N#CC1Cc2ccccc2C1` [2,3-dihydro-1H-indene-2-carbonitrile]: the entries for the “number of mosquitoes landed on the Warm Body” value (“number of mosquitoes landed” for short) in assay [1] (0.0016% in ethanol (Table 6)) and in assay [1] (0.04% in ethanol (Table 6)) were 59 and 13, respectively. In addition, the pest or weed control at 0.04 % in assay [2] (setting [6]) is 29%. Moreover, the pest or weed control at 0.2 % in assay [2] (setting [7]) is 71%. Further, in assay [2] (setting [8]), the pest or weed control at 1 % was found to be 100%.
On to `CC1(CO)Cc2ccccc2C1` [(2-methyl-1,3-dihydroinden-2-yl)methanol], for which the “number of mosquitoes landed” value in assay [1] (0.0016% in ethanol (Table 6)) came to 65; in assay [1] (0.04% in ethanol (Table 6)), 16; in assay [1] (1% in ethanol (Table 6)) it was 1. For the same compound, the pest or weed control at 0.0016 % in assay [2] (setting [3]) came out at 0%. Also, in assay [2] (setting [4]), the pest or weed control at 0.04 % is 14%. For the same compound, the pest or weed control at 1 % in assay [2] (setting [5]) was 92%.
The compound `c1ccc2c(c1)CC1COCOC21` (stereo not drawn) [ingredient #3, 4,4A,5,9B-tetrahydro-indeno[1,2-D]-1,3-dioxin] yielded a reduction of landing in assay [1] (0.0016% (Table 7)) of 5%. For the same compound, the “number of mosquitoes landed” value stood at 76 in assay [1] (0.0016% in ethanol (Table 6)); 76 in assay [1] (0.0016% in ethanol (Table 7, one replicate)); 61 in assay [1] (0.008% in ethanol (Table 7, one replicate)); 42 in assay [1] (0.0119% in ethanol (Table 7, one replicate)); 6 in assay [1] (0.04% in ethanol (Table 6)); 6 in assay [1] (0.04% in ethanol (Table 7, one replicate)). Further, the “number of mosquitoes landed” value in assay [1] (0.0598% in ethanol (Table 7, one replicate)) worked out at 4; in assay [1] (0.2% in ethanol (Table 7, one replicate)) it was 0; in assay [1] (0.447% in ethanol (Table 7, one replicate)), 2; in assay [1] (1% in ethanol (Table 6)), 2; in assay [1] (1% in ethanol (Table 7, one replicate)), 2. Moreover, the “percentage of ticks being affected” value in assay [2] (0.00032% (Table 9)) was determined as 0%; in assay [2] (0.00071% (Table 9)), 8%; in assay [2] (0.0016% (Table 9)), 0%; in assay [2] (0.00357% (Table 9)), 0%; in assay [2] (0.0053% (Table 9)), 0%; in assay [2] (0.008% (Table 9)) it was 0%. Also, the “percentage of ticks being affected” value in assay [2] (0.0119% (Table 9)) came out at 0%; in assay [2] (0.0178% (Table 9)) it was 0%; in assay [2] (0.0267% (Table 9)), 0%; in assay [2] (0.04% (Table 9)) it was 13%; in assay [2] (0.0598% (Table 9)), 6%; in assay [2] (0.089% (Table 9)), 0%. The “percentage of ticks being affected” value in assay [2] (0.2% (Table 9)) came to 24%; in assay [2] (0.447% (Table 9)), 67%; in assay [2] (1% (Table 9)), 92%. Further, the “percentage of ticks affected overtime” value in assay [2] (20% (w/w) in ethanol, 0.25 h post-application) was 100%; in assay [2] (20% (w/w) in ethanol, 0.5 h post-application), 92%; in assay [2] (20% (w/w) in ethanol, 1 h post-application), 8%; in assay [2] (20% (w/w) in ethanol, 2 h post-application), 17%; in assay [2] (20% (w/w) in ethanol, 4 h post-application), 15%; in assay [2] (20% (w/w) in ethanol, 6 h post-application) it was 33%. For the same compound, in assay [2] (20% (w/w) in ethanol, Table 14), the “ticks' repellency overtime (in words)” value is “very effective at the first time points”. The pest or weed control at 0.0016 % in assay [2] (Ixodes ricinus, 0.0016% in ethanol (Table 12), read-out: percentage of ticks affected on the Warm Plate) stood at 0%. Besides, in assay [2] (Ixodes ricinus, 0.0053% in ethanol (Table 12), read-out: percentage of ticks affected on the Warm Plate), the pest or weed control at 0.0053 % was determined as 0%. Also, the pest or weed control at 0.008 % in assay [2] (Ixodes ricinus, 0.008% in ethanol (Table 12), read-out: percentage of ticks affected on the Warm Plate) worked out at 0%. The pest or weed control at 0.0119 % in assay [2] (Ixodes ricinus, 0.0119% in ethanol (Table 12), read-out: percentage of ticks affected on the Warm Plate) amounted to 0%. Also, the pest or weed control at 0.0178 % in assay [2] (Ixodes ricinus, 0.0178% in ethanol (Table 12), read-out: percentage of ticks affected on the Warm Plate) was 0%. In addition, the pest or weed control at 0.0267 % in assay [2] (Ixodes ricinus, 0.0267% in ethanol (Table 12), read-out: percentage of ticks affected on the Warm Plate) came to 0%. Besides, the pest or weed control at 0.04 % in assay [2] (Ixodes ricinus, 0.04% in ethanol (Table 12), read-out: percentage of ticks affected on the Warm Plate) was 13%. Besides, in assay [2] (Ixodes ricinus, 0.0598% in ethanol (Table 12), read-out: percentage of ticks affected on the Warm Plate), the pest or weed control at 0.0598 % was 6%. Also, in assay [2] (Ixodes ricinus, 0.089% in ethanol (Table 12), read-out: percentage of ticks affected on the Warm Plate), the pest or weed control at 0.089 % came out at 0%. Further, the pest or weed control at 0.2 % in assay [2] (Ixodes ricinus, 0.2% in ethanol (Table 12), read-out: percentage of ticks affected on the Warm Plate) was determined as 24%. Moreover, the pest or weed control at 0.447 % in assay [2] (Ixodes ricinus, 0.447% in ethanol (Table 12), read-out: percentage of ticks affected on the Warm Plate) worked out at 67%. Besides, the pest or weed control at 1 % in assay [2] (Ixodes ricinus, 1% in ethanol (Table 12), read-out: percentage of ticks affected on the Warm Plate) was determined as 92%. The compound further returned a ticks affected in assay [2] (dose of 0.598%) of 6%.
In the case of `Cc1ccc2c(c1)CC(CO)C2` (racemic) [(+−)-(5-methyl-2,3-dihydro-1H-inden-2-yl)methanol], the “number of mosquitoes landed” value turned out to be 65 in assay [1] (0.0016% in ethanol (Table 6)), 7 in assay [1] (0.04% in ethanol (Table 6)) and 5 in assay [1] (1% in ethanol (Table 6)). Besides, the pest or weed control at 0.04 % in assay [2] (setting [6]) was determined as 0%. Also, the pest or weed control at 0.2 % in assay [2] (setting [7]) is 100%. Moreover, the pest or weed control at 1 % in assay [2] (setting [8]) was determined as 100%. For the same compound, the “concentration at which the level of 85% of ticks affected is reached” value in assay [2] was 0.2%.
Turning to `Cc1ccc2c(c1)[C@H]1OCOC[C@H]1C2` (racemic) [(4aRS,9bSR)-8-methyl-4,4a,5,9b-tetrahydroindeno[1,2-d][1,3]dioxin], the “number of mosquitoes landed” value in assay [1] (0.0016% in ethanol (Table 6)) is listed as 103; in assay [1] (0.04% in ethanol (Table 6)), 8; in assay [1] (1% in ethanol (Table 6)) it was 8. In assay [2] (setting [6]), the pest or weed control at 0.04 % stood at 8%. Moreover, the pest or weed control at 0.2 % in assay [2] (setting [7]) was 33%. In addition, the pest or weed control at 1 % in assay [2] (setting [8]) turned out to be 85%.
For `OCC1Cc2ccccc2C1` [2,3-dihydro-1H-inden-2-ylmethanol], the results for the “number of mosquitoes landed” value in assay [1] (0.0016% in ethanol (Table 6)) and in assay [1] (0.04% in ethanol (Table 6)) were 32 and 1, respectively. The pest or weed control at 0.04 % in assay [2] (setting [6]) turned out to be 29%. Besides, the pest or weed control at 0.2 % in assay [2] (setting [7]) stood at 100%. Further, in assay [2] (setting [8]), the pest or weed control at 1 % was 92%. Moreover, the “concentration at which the level of 85% of ticks affected is reached” value in assay [2] amounted to 0.2%.
Take `CCN(CC)C(=O)c1cccc(C)c1` [DEET, N,N-diethyl-3-methylbenzamide, reference compound]: the “% of mosquitoes' repellency” value stood at 17% in assay [1] (0.00032% concentration); 10% in assay [1] (0.00071% concentration); 5% in assay [1] (0.0016% concentration); 19% in assay [1] (0.0036% concentration); 46% in assay [1] (0.0053% concentration); 61% in assay [1] (0.0080% concentration). For the same compound, the “% of mosquitoes' repellency” value in assay [1] (0.018% concentration) is given as 79%; in assay [1] (0.040% concentration) it was 89%; in assay [1] (0.089% concentration), 97%; in assay [1] (0.20% concentration) it was 98%; in assay [1] (0.45% concentration) it was 95%; in assay [1] (1% concentration), 97%. For the same compound, the results for the “mean ± SD numbers of mosquitoes landed on the Warm Body” value in assay [1] (0.0016% dilution (Table 4)), in assay [1] (0.04% dilution (Table 4)) and in assay [1] (1% dilution (Table 4)) were 53.3 ± 12.5, 5.7 ± 1.0 and 0.7 ± 0.3, respectively. Also, in assay [1] (0.04% in ethanol (FIG. 8)), the pest or weed control at 0.04 % stood at 92%. The “MEAN % affected (ticks)” value was 50% in assay [2] (0.4 mg/mL in ethanol (Table 5)) and 96% in assay [2] (10 mg/mL in ethanol (Table 5)).
